Reference: EP2992880A1, “Use of heme oxygenase 1 inducers and cannabinoid 2 receptor or delta-opioid receptor agonists in inflammatory pain” (Fundació Institut de Recerca de l'Hospital de la Santa Creu …, priority 2014, dated 2016)

Assays:
CFA-injected mice = assay: plantar test (thermal hyperalgesia) in CFA-induced chronic inflammatory pain; assay type: in vivo, male C57BL/6 mice
Protocol: The experiments were performed in male C57BL/6 mice acquired from Harlan Laboratories (Barcelona, Spain). All mice weighing 21 to 25 g were housed under 12-h/12-h light/ dark conditions in a room with controlled temperature (22° C) and humidity (66%). Animals had free access to food and water and were used after a minimum of 7 days acclimatization to the housing conditions. All experiments were performed according with the Guide for the Care and Use of Laboratory Animals as adopted and promulgated by the U.S. National Institutes of Health and approved by the local Committee of Animal Use and Care of the Autonomous University of Barcelona. All efforts were made to minimize animal suffering and to reduce the number of animals used.
Chronic inflammatory pain was induced by the subplantar injection of 30 µl of CFA (Sigma) into the right hind paw under brief anesthetic conditions with isoflurane according to previous works (Leánez et al., Eur J Pharmacol, 2009, 602:41-49; Hervera et al., Naunyn Schmiedebergs Arch Pharmacol, 2009, 380:345-352). All experiments were performed at 10 days after CFA injection. At this time point, all of these animals developed a local inflammatory reaction, allodynia to mechanical stimuli and hyperalgesia to noxious thermal stimuli, as previously reported (Negrete et al., PLoS One, 2011, 6:e26688). The development of mechanical allodynia and thermal hyperalgesia was evaluated by using the von Frey filaments and plantar tests, respectively. All animals were tested in each paradigm before and at 10 days after CFA-injection.
Thermal hyperalgesia was assessed as previously reported by Hargreaves et al. (Pain, 1988, 32:77-88). Paw withdrawal latency in response to radiant heat was measured using the plantar test apparatus (Ugo Basile, Varese, Italy). Briefly, mice were placed in methacrylate cylinders (20 cm high x 9 cm diameter) positioned on a glass surface. The heat source was positioned under the plantar surface of the hind paw and activated with a light beam intensity, chosen in preliminary studies to give baseline latencies from 8 to 10 s in control mice. A cut-off time of 12 s was used to prevent tissue damage in absence of response. The mean paw withdrawal latencies from the ipsilateral and contralateral hind paws were determined from the average of three separate trials, taken at 5 min intervals to prevent thermal sensitization and behavioral disturbances. Animals were habituated to the environment for 1 h before the experiment to become quiet and to allow testing. […]
In another set of experiments, we evaluated the mechanical antiallodynic and thermal antihyperalgesic effects produced by the subplantar administration of 290 µg of SnPP alone or combined with the subplantar administration of a high dose of DPDPE (150 µg) or JWH-015 (300 µg) in the contralateral and ipsilateral paw of CFA-injected animals (n = 6 animals per group).
The reversibility of the antinociceptive effects produced by the subplantar administration of DPDPE (150 µg) or JWH-015 (300 µg), as doses that produce the maximal antiallodynic and antihyperalgesic effects after peripheral inflammation, by their subplantar coadministration with specific (naltrindole; 50 µg; AM630; 60 µg) and an unspecific peripheral opioid antagonist (naloxone methiodide, NX-ME; 50 µg) or a cannabinoid 1 receptor (CB1R) antagonist (AM251; 150 µg) (Hervera et al., J Pharmacol Exp Ther, 2010, 334: 887-896; Hervera et al., Mol Pain, 2011, 7:25) was also evaluated (n = 6 animals per group). The doses of all tested opioid and cannabinoid receptor antagonists were selected according to our previous data in animals with chronic pain (Hervera et al., Naunyn Schmiedebergs Arch Pharmacol, 2009, 380:345-352; Hervera et al., Psychopharmacology, 2013, 228:463-477; Negrete et al., PLoS One, 2011, 6:e26688).
CoPP and SnPP were dissolved in DMSO (1 % solution in saline). JWH-015, AM630, AM251 were dissolved in DMSO (50 % solution in saline). […]

HO-1 = assay: Western blot of HO-1 protein in dorsal root ganglia of CFA-injected mice; assay type: in vivo; conditions: CoPP treatment of CFA-injected mice; P < 0.001 (Fig. 6)
Protocol: (§1) Animals were sacrificed at 0 days (naive) and after CFA-injection by cervical dislocation. Tissues from the ipsilateral section of the dorsal root ganglia (L3 to L5) were removed immediately after killing, frozen in liquid nitrogen, and stored at -80°C until assay. Samples from five animals were pooled into one experimental sample to obtain enough protein levels for performing Western blot analysis. The HO-1, DOR and CB2R protein levels were analyzed by Western blot. […]
(§2) The proteins were electrophoretically transferred onto PVDF membrane for 120 min, blocked with PBS + 5% nonfat dry milk, and subsequently incubated overnight at 4°C with polyclonal rabbit anti-HO-1 (1:300, Stressgen, Ann Arbor, MI), anti-DOR (1:2500, Chemicon-Millipore) or anti-CB2R (1:500, Abcam, Cambridge, United Kingdom). The proteins were detected by a horseradish peroxidase-conjugated anti-rabbit secondary antibody (GE Healthcare, Little Chalfont, Buckinghamshire, United Kingdom) and visualized with chemiluminescence reagents (ECL kit; GE Healthcare) and by exposure onto hyperfilm (GE Healthcare). The intensity of blots was quantified by densitometry. […]
(§3) Finally, in another set of experiments we evaluated the effects of CoPP on the expression of HO-1, DOR and CB2R in the ipsilateral site of the dorsal root ganglia from CFA-injected mice, by using Western blot assay. […]

[1] = neuropathic pain; cited from earlier work
CB2R = assay: Western blot of CB2R protein in dorsal root ganglia of CFA-injected mice; assay type: in vivo; conditions: CoPP treatment of CFA-injected mice (Fig. 8)
Protocol: as §1, §2, §3

cobalt (III) protoporphyrin IX chloride [CoPP]
effect of CoPP treatment on the thermal antihyperalgesic effects of DPDPE (CFA-injected mice; CoPP 10 mg/kg intraperitoneal, DPDPE 50 µg subplantar, P < 0.001 (Fig. 3B)): significantly increased
effect of CoPP treatment on the antihyperalgesic effects of JWH-015 (CFA-injected mice; CoPP 10 mg/kg intraperitoneal, JWH-015 30 µg subplantar, P < 0.001 (Fig. 4B)): significantly enhanced
thermal hyperalgesia induced by peripheral inflammation (CFA-injected mice; CoPP alone 10 mg/kg intraperitoneal, ipsilateral paw, P < 0.001 versus vehicle (Fig. 3B)): significantly attenuated
Thermal hyperalgesia, Experimental results (%) (maximal possible effect) (CFA-injected mice; Table 5, ipsilateral paw, CoPP 10 mg/kg intraperitoneal, DPDPE 50 µg subplantar, vehicle 4.0): 26.8%
Thermal hyperalgesia, Experimental results (%) (maximal possible effect) (CFA-injected mice; Table 6, ipsilateral paw, CoPP 10 mg/kg intraperitoneal, JWH-015 30 µg subplantar, vehicle 4.9): 22.3%
dorsal root ganglia expression of HO-1 (HO-1): significantly increased
effect of CoPP on the antinociceptive effect of DPDPE [1]: decreased
effect of CoPP on the antinociceptive effect of JWH-015 [1]: decreased
effect of CoPP on the antinociceptive effect of morphine [1]: increases
peripheral expression of CB2R in the dorsal root ganglia from CFA-injected mice (CB2R): remains unaltered
